According to patent publication US20160263214A1, “CALCIUM FLUORIDE COMPOSITIONS” (GLAXOSMITHKLINE BIOLOGICALS S.A., priority 2013, published 2016):

Assay: Composite organic content by thermogravimetry
Assay type: physicochemical
Settings: for Weight losses (single cell, temperature range not attributable): pure organic reference, one cell only; for Weight losses Between 0 and 200° C. under N2 / Weight losses Between 200 et 600° C. under N2 / Weight losses Between 600 et 800° C. under Air: thermogravimetry, dry material
Experimental: Dry material sample were submitted to thermogravimetry. Weight losses from RT to 600° C. under N2 and from 600° C. to 800° C. under O2 were recorded and represent by difference the quantity of burned organic material.

O=C(O)CCCCC(=O)O [Adipic acid]
Weight losses (single cell, temperature range not attributable): 100%

O=c1[nH]cnc2nc[nH]c12 [Hypoxanthine]
Weight losses Between 0 and 200° C. under N2: 0.2%
Weight losses Between 200 et 600° C. under N2: 50.6%
Weight losses Between 600 et 800° C. under Air: 49.2%

Cc1c[nH]c(=O)[nH]c1=O [Thymine]
Weight losses (single cell, temperature range not attributable): 100%

O=c1[nH]c(=O)c2[nH]c(=O)[nH]c2[nH]1 [Uric acid]
Weight losses Between 0 and 200° C. under N2: 0.1%
Weight losses Between 200 et 600° C. under N2: 74.6%
Weight losses Between 600 et 800° C. under Air: 25.3%
